Source: patent US20250221936A1, “ENGINEERED HEMICHANNELS, ENGINEERED VESICLES, AND USES THEREOF” (VIRGINIA TECH INTELLECTUAL PROPERTIES, INC., priority 2018, published 2025)
Entries after “also recorded” stand apart in the source; their conditions may differ.

Legend:
GST-Cx43 CT = molecular target: T1, GST-Cx43 CT (Rattus norvegicus, UniProt P08050); experiment: EDC cross-linking of kinase reaction mixtures, Cx43 CT; assay type: binding; conditions: 5, 10 and 25 μM
T1 construct: pGEX-6-P2 Cx43 CT amino acids 255-382; made in house; host or cells: E. coli BL21
Procedure: To characterize the interaction between the Cx43 CT substrate and peptides, the in vitro kinase assay was performed as above with modification and the constituents then subjected to a cross-linking reaction. The assay buffer used was 20 mM 3-(N-morpholino) propanesulfonic acid (MOPS), pH 7.2. All other reagents present in the kinase reaction were maintained as described above. The reaction was allowed to proceed at 37° C. for 15 minutes. Afterwards, the carbodiimide crosslinker 1-Ethyl-3-(3-dimethylaminopropyl) carbodiimide HCl (EDC) (Thermo, 22980) was added to each solution for a final concentration of 20 mM. The solution was allowed to cross-link for one hour at room temperature. The reaction was stopped by the addition of 4×LDS loading buffer, boiled for 5 minutes and subsequently separated by PAGE. The resulting gel was stained in Coomassie brilliant blue (Sigma, B0770) for two hours and destained in a solution of 4% methanol 7% acetic acid overnight. Gel bands were subsequently excised for mass spectrometric analysis. For the direct interaction between protein and peptides, PBS, pH 7.5 was used as the coupling buffer. The protein (50 μg/ml) and peptide (25 μM) were allowed to react at room temperature for one hour before EDAC was added to the reaction mixture. The reaction was Western blotted for Cx43, GST or NeutroAvidin. […]

[1] = system: human MGMT-deficient and TMZ-resistant GBM cells; conditions: cited from earlier work
[2] = system: chronic, slow healing skin wounds; conditions: diabetic foot ulcers and venous leg ulcers; cited from earlier work
cornea = conditions: rat, in vivo; cited from earlier work
[3] = system: Human umbilical vein endothelial cells (HUVECs); conditions: cited from earlier work
porcine kidney = conditions: 100 μm in Belzer's solution, on ice 24 h; cited from earlier work
GST-Cx43 CT QQ/KK = molecular target: T2, GST-Cx43 CT QQ/KK (Rattus norvegicus, UniProt P08050, K345Q/K346Q); experiment: EDC cross-linking, Cx43 CT QQ/KK mutant substrate; assay type: binding; conditions: 5, 10 and 25 μM
T2 construct: pGEX-6-P2 Cx43 CT amino acids 255-382; made in house; host or cells: E. coli BL21
Procedure: To characterize the interaction between the Cx43 CT substrate and peptides, the in vitro kinase assay was performed as above with modification and the constituents then subjected to a cross-linking reaction. The assay buffer used was 20 mM 3-(N-morpholino) propanesulfonic acid (MOPS), pH 7.2. All other reagents present in the kinase reaction were maintained as described above. The reaction was allowed to proceed at 37° C. for 15 minutes. Afterwards, the carbodiimide crosslinker 1-Ethyl-3-(3-dimethylaminopropyl) carbodiimide HCl (EDC) (Thermo, 22980) was added to each solution for a final concentration of 20 mM. The solution was allowed to cross-link for one hour at room temperature. The reaction was stopped by the addition of 4×LDS loading buffer, boiled for 5 minutes and subsequently separated by PAGE. The resulting gel was stained in Coomassie brilliant blue (Sigma, B0770) for two hours and destained in a solution of 4% methanol 7% acetic acid overnight. Gel bands were subsequently excised for mass spectrometric analysis. For the direct interaction between protein and peptides, PBS, pH 7.5 was used as the coupling buffer. The protein (50 μg/ml) and peptide (25 μM) were allowed to react at room temperature for one hour before EDAC was added to the reaction mixture. The reaction was Western blotted for Cx43, GST or NeutroAvidin.

cancer stem cells CSCs = experiment: Cancer stem cell survival; assay type: cell-based
Excerpt: In another example, JM peptides can selectively target cancer stem cells CSCs. JM2 specific interaction with microtubules concomitantly with a loss of Cx43/microtubule complexing and a decrease in cell-cell communication in CSCs derived from patient tumors was confirmed. […] Current research includes the development of JM2-loaded biodegradable nanoparticles for JM2 sustained delivery in preparation for future clinical trials. In sum, the Cx43 mimetic peptide JM2 represents a novel and potent therapeutic opportunity to target chemoresistant CSCs in cancer treatment. This was described in (Lamouille et al., targeting glioblastoma cancer stem cells with a novel Connexin43 mimetic peptide [abstract]. In: Proceedings of the American Association for Cancer Research Annual Meeting 2017; 2017 Apr. 1-5; Washington, DC. Philadelphia (PA): AACR; Cancer Res 2017;77 (13 Suppl): Abstract nr 4765. doi: 10.1158/1538-7445.AM2017-4765), which is incorporated by reference. Further results can indicate that cancer stem cells derived from other cancers respond similarly to JM peptides. […]

T1 sequence (P08050 255-382): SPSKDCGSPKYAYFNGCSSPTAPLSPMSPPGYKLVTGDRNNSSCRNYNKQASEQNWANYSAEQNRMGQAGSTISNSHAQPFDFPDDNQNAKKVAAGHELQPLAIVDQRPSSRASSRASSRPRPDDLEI
T2 sequence (P08050 255-382 K345Q/K346Q): as the sequence (P08050 255-382) above, with K91Q, K92Q counted along it

Row | Sequence | EDC cross-linking to Cx43 CT (GST-Cx43 CT) | sensitivity to TMZ [1] | healing of skin wounds [2] | corneal closure and regeneration (cornea) | protection from oxidative stress ([3]; H2O2) | cellular injury ([3]; UW solution containing 100 μM) | IL-8 secretion and MHC II expression ([3]; UW solution supplemented with peptide) | TEER and IL-8 secretion post reperfusion ([3]; UW+ACT1 solution) | Cx43 staining (porcine kidney) | nitrotyrosine staining (porcine kidney) | EDC cross-linking to Cx43 CT QQ/KK mutant substrate (GST-Cx43 CT QQ/KK) | viability and self-renewal of colon cancer stem cells (cancer stem cells CSCs)
1 | RQPKIWFPNRRKPWKKRPRPDDLEI [alpha CT1] | covalently linked by EDC to Cx43 CT in a concentration-dependent manner | sensitized human MGMT-deficient and TMZ-resistant GBM cells to TMZ treatment | high level of efficacy in promoting the healing of two types of chronic, slow healing skin wounds; also recorded: increased the healing rate of slow-healing skin wounds | faster closure and more complete corneal regeneration than control corneas | significantly protects endothelial cells from H2O2 | significantly reduced cellular injury as compared to untreated controls | significant reduction in IL-8 secretion and MHC Class II expression | improved TEER and reduced IL-8 secretion | Punctate Cx43 staining in the membrane (gap junctions) were preserved | no changes in nitrotyrosine staining in the presence of ACT1 peptide | no evidence of cross-linking | –
2 | VFFKGVKDRVKGRSD [JM2] | – | – | – | – | – | – | – | – | – | – | – | effectively reduced the viability and self-renewal of cancer stem cells from patients with colon cancer
